Data set [1] deals with T1, CaVα1CaVβ3 interaction (Rattus norvegicus, UniProt P54287).
T1 construct: made in house; host or cells: E. coli BL21(DE3)
As to the kind of experiment: fluorescence polarization assay, inhibition constant. In kind it is binding. The conditions noted are these: for Ki: fluorescence polarization assay. As for the experimental part:
The plasmid of pET28a-CaV2.2β3 subunit was transformed into competent E. Coli BL21(DE3) strain. Culture was grown in LB medium at 37° C. to an OD600 of approximately 0.6 and then induced with 0.5 mM IPTG at 16° C. for 16 h. Cells were collected by centrifugation and lysed by microfluidizer in lysis buffer (phosphate buffer, pH 7.6, 2 mM DTT). The His-CaVβ3 protein was purified at 4° C. using Ni-IMAC chromatography (His-Trap HP, GE Healthcare) and eluted with 500 mM imidazole in lysis buffer with a gradient method. After the fractions consisted of His-CaVβ3 was combined and concentrated, the protein was further purified using size exclusion chromatography (Superdex 200 pg, GE Healthcare) in PBS with 2 mM DTT.
Compound 6 forms a salt bridge interaction with Arg-307 through a benzoic acid moiety. […] Arg-307 was mutated to alanine.
Background: Polarisation of emitted light reports the rotation of a fluorescent probe.

Data set [2] in a line: pharmacokinetics, plasma concentrations by LC-MS/MS after IV and PO administration. In kind it is in vivo, Kunming mice. The conditions noted are these: Kunming, mouse; for half-life: read-out: elimination half-life (converted); for Cmax: read-out: Cmax peak plasma concentration. As to the method: Plasma concentrations at various time points were determined using liquid chromatography tandem mass spectroscopy (LC-MS/MS). For intravenous (IV) administration, compound 14 was formulated as a solution at a final dose of 1 mg/kg.
For oral gavage (PO) administration, compound 14 was formulated as a solution at a final dose of 10 mg/kg. Plasma concentrations at various time points were determined using LC-MS/MS.
PK profiles of compound 14 after intravenous and oral administration was performed in Kunming mice. Plasma concentrations were determined by liquid chromatography tandem mass spectroscopy. Summary of PK properties and plasma concentration measured 1 hour after intravenous or oral administration of 1 or 10 mg/kg compound 14.

For data set [3], the system named is tibial nerve injury (TNI) model of neuropathic pain. The experiment in a line: tibial nerve injury (TNI) model of neuropathic pain, von Frey withdrawal threshold. The format is in vivo, rat. As to the method: Pathogen-free, adult, female Sprague Dawley (weight at testing 150-200 g; Harlan-Sprague-Dawley, Indianapolis, IN) were housed in a climate-controlled room on a 12-hour light/dark cycle and were allowed to have food and water ad libitum. All procedures were approved by the Indiana University Animal Care and Use Committee and conformed to the guidelines of the National Institutes of Health (publication no. 80-23, 1966) for the use of laboratory animals. All behavioral experiments were conducted by experimenters blinded to the treatment conditions and compound identity. The experiments were replicated a minimum of 2 times with independent cohorts of animals.
For in vivo studies, the inventive compounds were freshly prepared saline (0.9%) on the day of the experiment. Morphine sulfate salt (Sigma-Aldrich, St. Louis, MO) was freshly prepared on the day of the experiment in saline. […]
The inventive compounds were assessed with the tibial nerve injury (TNI) model of neuropathic pain 28 days after surgery. Using isoflurane anesthesia (4% induction and 2% maintenance), the right sciatic nerve was isolated under aseptic surgical conditions by blunt dissection of the femoral biceps muscle and the tibial nerve was tightly ligated with 5-0 silk and transected distal to the ligation. Additional 2 to 3 mm of distal nerve stump was removed to prevent reinnervation by the proximal nerve. The overlying muscle and skin was then sutured in 2 separate layers. Sham-injured animals were subjected to all preceding procedures with the exception of ligation and transection. All animals were returned to the housing facility and allowed to survive for 28 d. Mechanical stimuli were applied with 7 filaments, each differing in the bending force delivered (10, 20, 40, 60, 80, 100, and 120 mN), and fitted with a flat tip and fixed diameter of 0.2 mm. The filaments were tested in the order of ascending force, with each filament delivered for 1 second. Withdrawal threshold was determined by sequentially increasing and analyzed with Hill equation was fitted to the function (Origin version 6.0; Microcal Software) relating the percentage of indentations eliciting a withdrawal to the force of indentation.

Data set [4] relates to T2, CaV2.2 channels in HEK-CaV2.2 cells (Rattus norvegicus).
T2 construct: expressed in transfected cells
T2 sequence (P54287 whole entry): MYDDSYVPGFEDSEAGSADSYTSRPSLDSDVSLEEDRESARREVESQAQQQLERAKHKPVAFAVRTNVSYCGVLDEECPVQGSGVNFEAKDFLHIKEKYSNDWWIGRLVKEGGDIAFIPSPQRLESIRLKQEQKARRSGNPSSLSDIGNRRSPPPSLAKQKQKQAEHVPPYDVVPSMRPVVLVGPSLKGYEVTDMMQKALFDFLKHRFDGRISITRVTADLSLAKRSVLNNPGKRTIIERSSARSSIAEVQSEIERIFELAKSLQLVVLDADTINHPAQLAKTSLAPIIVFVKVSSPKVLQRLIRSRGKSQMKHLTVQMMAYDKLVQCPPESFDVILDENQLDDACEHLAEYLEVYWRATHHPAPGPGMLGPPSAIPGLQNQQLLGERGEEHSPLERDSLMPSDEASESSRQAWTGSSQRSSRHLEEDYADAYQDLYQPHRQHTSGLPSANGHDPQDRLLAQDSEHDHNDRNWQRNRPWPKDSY
As to the kind of experiment: whole cell patch-clamp, CaV2.2 currents in HEK-CaV2.2 cells. In kind it is cell-based. As to the method: The G-V curves are shown.
HEK-CaV2.2 cells were pretreated with various concentrations of compound 14 for 48 hours. CaV2.2 currents were acquired during 20-ms depolarizing pulses, and the current densities were calculated as a ratio of the peak current amplitude and each cell capacitance (0.1 μM, n=6; 1 μM, n=7; 10 μM, n=8; 50 μM, n=12). The line is the fit of the data to the four-parameter logistic function.
EK-CaV2.2 cells were pretreated with the indicated compounds for 48 hours. *** corresponds to […].
FIGS. 8 and 9 show the effects of 2 and 14 on the voltage dependence of activation of CaV2.2 channels in HEK-CaV2.2 cells pretreated with the vehicle or the indicated compounds for 48 hours. […] The gray vertical lines are the error bars (S.E.M.).
FIGS. 10 and 11 show acute effects of DMSO and 14 on the voltage dependence of activation of CaV2.2 channels in HEK-CaV2.2 cells. […] The gray vertical lines are the error bars (S.E.M.). “ns”—stands for not significant.
The whole cell patch-clamp technique was used to record CaV2.2 currents in HEK-CaV2.2 cells and rat DRG neurons. HEK293 cells that stably expressed rat N-type CaV2.2α1B, rat CaVβ3, and rat […] were utilized. Cells were grown in Dulbecco's modified Eagle's medium (DMEM) supplemented with 10% FBS, 50 units penicillin, 50 μg/ml streptomycin, 5 μg/ml blasticidin, 5 μg/ml hydromycin and 25 μg/ml zeozin at 37° C. in a humidified atmosphere of 95% air and 5% CO2. For patch clamp experiments, HEK-CaV2.2 cells were plated on glass coverslips and were cultured for 24-48 h. All animal procedures were performed in accordance to the NIH guide and were approved by the Indiana University School of Medicine Institutional Animal Care and Use Committee. Young adult Sprague Dawley rats were anesthetized (3% isoflurane) and then decapitated. The spinal column was removed, cut open, and dorsal root ganglia were harvested from the Lumbar L4-L6 vertebral levels. The ganglia were incubated in DMEM containing collagenase (1 mg/ml, Worthington: LS04194) and protease (1 mg/ml, Worthington: LS02104) for 30-60 minutes, and DRG neurons were dissociated by triturating in DMEM supplemented with 10% FBS. The isolated DRG neurons were plated on glass coverslips coated with growth factor reduced Matrigel (Thermo Fisher Scientific, Waltham, MA) and were cultured in Eagle's minimum essential medium (Invitrogen, CA) supplemented with 0.2% BSA and 20 ng/ml NGF-2.5S (BD Biosciences, Bedford, MA) at 37° C. in a water-jacketed 5% CO2 incubator overnight for the patch-clamp experiments.

In general, Ki refers to the dissociation constant of the complex between target and ligand, obtained from inhibition or displacement. Read a high Ki as lower affinity. The half-life is how long it takes for the measured level to halve. A word on the AUC(0-t): it is exposure summed from dosing to a finite time, without extrapolation to infinity. A lower AUC(0-t) goes with less exposure. For orientation: Tmax means the time from dosing to the highest level. Broadly, the IC50 is the concentration that gives 50% inhibition.

“Also recorded” adds a separate entry of the source. Read-outs that look alike come from different tables or passages of the source.

T1 sequence (P54287 whole entry): as above

As for `COc1ccc(C2=NN(C(=O)CCC(=O)O)C(c3cn(-c4ccccc4)nc3-c3ccc(C)cc3)C2)cc1` (centres unmarked) [Compound 1], the affinity in data set [1], expressed as Ki, was 6.7 ± 0.3 µM.
The same measure, in the same setting: next, `Cc1ccc(-c2nn(-c3ccccc3)cc2C2CC(c3ccc(-c4ccccn4)cc3)=NN2C(=O)CCC(=O)O)cc1` (centres unmarked) [Compound 4, 4-oxo-4-(1′-phenyl-5-(4-(pyridin-2-yl)phenyl)-3′-(p-tolyl)-3,4-dihydro-1′H,2H-[3,4′-bipyrazol]-2-yl)butanoic acid]: 2.2 ± 0.3 µM.
As for `COC(=O)c1cccc(C(=O)N2N=C(c3ccc(OC)cc3)CC2c2cn(-c3ccccc3)nc2-c2ccc(C)cc2)c1` (centres unmarked) [Compound 7, methyl 3-(5-(4-methoxyphenyl)-1′-phenyl-3′-(p-tolyl)-3,4-dihydro-1′H,2H-[3,4′-bipyrazole]-2-carbonyl)benzoate], in data set [1] (removal of the charge of the benzoic acid moiety), the “inhibition of the CaVα1CaVβ3 interaction” value was “complete loss of inhibition”.
The compound `COc1ccc(C2=NN(C(=O)c3cccc(C(=O)O)c3)C(c3cn(-c4ccccc4)nc3-c3ccc(Cl)cc3)C2)cc1` (centres unmarked) [Compound 8, 3-(3′-(4-chlorophenyl)-5-(4-methoxyphenyl)-1′-phenyl-3,4-dihydro-1′H,2H-[3,4′-bipyrazole]-2-carbonyl)benzoic acid] had a Ki in data set [1] of 1.2 ± 0.1 µM.
On the same count and under the same terms, next, `COc1ccc(C2=NN(C(=O)c3cccc(C(=O)O)c3)C(c3cn(-c4ccc(OC)cc4)nc3-c3ccc(C)cc3)C2)cc1` (centres unmarked) [Compound 10, 3-(1′,5-bis(4-methoxyphenyl)-3′-(p-tolyl)-3,4-dihydro-1′H,2H-[3,4′-bipyrazole]-2-carbonyl)benzoic acid]: 3.7 ± 0.2 µM.
Regarding `COc1ccc(C2=NN(c3cccc(C(=O)O)c3)C(c3cn(-c4ccccc4)nc3-c3ccc(C)cc3)C2)cc1` (centres unmarked) [Compound 11, 3-(5-(4-methoxyphenyl)-1′-phenyl-3′-(p-tolyl)-3,4-dihydro-1′H,2H-[3,4′-bipyrazol]-2-yl)benzoic acid], in data set [1], affinity was put at a Ki of 3.9 ± 0.9 µM.
Still for that read-out and setting: next, `COc1ccc(C2=NN(C(=O)c3cccc(C(=O)O)c3)C(c3cn(-c4cccnc4)nc3-c3ccc(C)cc3)C2)cc1` (centres unmarked) [Compound 12, 3-(5-(4-methoxyphenyl)-1′-(pyridin-3-yl)-3′-(p-tolyl)-3,4-dihydro-1′H,2H-[3,4′-bipyrazole]-2-carbonyl)benzoic acid]: 5 ± 1.9 µM.
`COc1ccc(C2=NN(C(=O)c3cccc(-c4nnn[nH]4)c3)C(c3cn(-c4ccccc4)nc3-c3ccc(C)cc3)C2)cc1` (centres unmarked) [Compound 14, (3-(1H-tetrazol-5-yl)phenyl)(5-(4-methoxyphenyl)-1′-phenyl-3′-(p-tolyl)-3,4-dihydro-1′H,2H-[3,4′-bipyrazol]-2-yl)methanone] registered a Ki in data set [1] of 2 ± 0.2 µM. In addition, the half-life in data set [2] (IV, 1 mg/kg) is 17.4 min. Also, in data set [2] (iv, 1 mg/kg), the AUC(0-t) amounted to 58 ng·h/mL, the Tmax is 4.98 min and the Cmax was determined as 181 ng/mL. For the same compound, in data set [2] (oral gavage (PO), 10 mg/kg), the AUC(0-t) was 636 ng·h/mL, the Tmax was found to be 60 min, the Cmax was found to be 165 ng/mL and the half-life is 119 min. Besides, the “reversal of mechanical hypersensitivity (PWT)” value in data set [3] (0.1 mg/kg single bolus, 1 and 24 h post-dosing, 4 weeks after TNI) is “significantly reversed mechanical hypersensitivity at both 1 and 24 h post-dosing; also recorded: significantly increased PWTs at both 1 and 24 hours post-injection”. Further, in data set [4] (50 μM, pretreated 48 hours), the “steady-state inactivation V0.5, inact” value is on record as −52.9±1.3 mV. Moreover, in data set [4] (pretreated 48 hours, current densities, four-parameter logistic fit, read-out: apparent IC50 for inhibition of CaV2.2 currents), the IC50 is 31 µM. In data set [4] (pretreated 48 hours, DMSO 8.7±1.1), the “mean half-activation potential V0.5, act” value came out at 16.5±1.1 mV.
With `COc1ccc(C2=NN(C(=O)c3cccc(C(=O)O)c3)C(c3cn(-c4ccccc4)nc3-c3ccc(-c4ncc[nH]4)cc3)C2)cc1` (centres unmarked) [Compound 15, 3-(3′-(4-(1H-imidazol-2-yl)phenyl)-5-(4-methoxyphenyl)-1′-phenyl-3,4-dihydro-1′H,2H-[3,4′-bipyrazole]-2-carbonyl)benzoic acid], the “half-activation voltage V0.5, act after acute treatment” value in data set [4] (50 μM, 5 min incubation, before 6.4±1.9) turned out to be 11.4±1.7 mV. Moreover, the “density of CaV2.2 currents” value in data set [4] (50 μM, pretreated 48 hours, depolarizing pulses to 0 mV from holding potential −80 mV, DMSO −74.8±7.0) was −11.1±2.4 pA/pF.
On to `CN1CC[C@]23c4c5ccc(O)c4O[C@H]2[C@@H](O)C=C[C@H]3[C@H]1C5.O=S(=O)(O)O` [morphine, Morphine sulfate salt, reference compound], for which the “withdrawal threshold to von Frey stimulation” value in data set [3] (5 mg/kg systemic, 28 days after TNI) was 32±2.6 mN.

For the origin of these results see US11999720B2, “Pyrazolylacylpyrazoline compounds and method for treating pain” (THE TRUSTEES OF INDIANA UNIVERSITY, priority 2018, dated 2024).
